Entries after “also recorded” stand apart in the source; their conditions may differ.
Assays:
VDR [1] = target: T1, VDR (Mus musculus, UniProt P48281); test: Cyp24a1 induction assay for VDR agonism in 4TO7 cells; assay type: cell-based; details: 24 h
T1 construct: endogenous in cells; host or cells: 4TO7 and 4T1 mouse triple-negative breast cancer cells
T1 sequence (P48281 1-422): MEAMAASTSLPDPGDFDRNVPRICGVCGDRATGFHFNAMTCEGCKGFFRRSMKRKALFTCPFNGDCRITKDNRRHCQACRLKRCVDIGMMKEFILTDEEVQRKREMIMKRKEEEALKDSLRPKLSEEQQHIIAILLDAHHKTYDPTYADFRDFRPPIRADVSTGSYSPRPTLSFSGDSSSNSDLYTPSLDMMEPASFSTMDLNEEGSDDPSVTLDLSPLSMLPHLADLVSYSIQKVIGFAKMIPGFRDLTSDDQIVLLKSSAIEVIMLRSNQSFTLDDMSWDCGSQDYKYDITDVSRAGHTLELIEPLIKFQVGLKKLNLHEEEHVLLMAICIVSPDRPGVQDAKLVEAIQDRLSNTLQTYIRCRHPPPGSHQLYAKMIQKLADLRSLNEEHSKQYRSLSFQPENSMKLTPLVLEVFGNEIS
Method: (§1) Figure 5 (a) and (b) Analysis of induced Cyp24a1 expression in 4TO7 (a) and 4T1 (b) cells to test for VDR agonism of DK-406 and heterocyclic analogues after 24 h treatment. c-e. Analysis of the cytotoxicity of hybrid compounds after 24 h using the MTGlo assay (see Methods for details) in 4TO7 (c), 4T1 (d) and MDA-MB-231 (e) cells. […] Each condition was compared to control. *: p ≤ 0.05, **: p ≤ 0.01, ***: p ≤ 0.001, ****: p ≤ 0.0001, ns: not significant.
(§2) As previously, we were interested in studying the efficacy of hybrids in models of TNBC. We used the 4T1 cell line[20] as well as the related TNBC cell line 4TO7, which was derived from the same mouse tumor as 4T1 cells in Balb/c mice[33]. 4TO7 cells readily form primary tumors. […] These lines also have the advantage that anti-tumor efficacy studies can be performed in Balb/c mice, which have intact immune systems. Compounds were initially tested for VDR agonist activity in 4TO7 cells by screening induction of the VDR target gene Cyp24a1. […] The pyridyl hybrids were then tested for efficacy in vitro in 4TO7 and 4T1 cells using an MT-Glo assay in which only viable cells can convert a precursor into a substrate for a luciferase bioluminescence assay (Fig. 5c,d; see Methods for details).
Mouse 4T07 cells and 4T01 cells were cultured in DMEM (319–005-CL; WISENT Inc.) supplemented with 10% heat-inactivated FBS. MB-MDA231 cells were cultured in Leibovitz’s L-15 medium with 10% heat-inactivated FBS in the absence of CO2.
RNA extraction was performed with the FavorPrep tissue total RNA mini kit (FAVORGEN Biotech Corporation—FATRK 001) as per manufacturer’s instructions. cDNA was obtained from 1 µg of RNA using 5X All-in-One RT Mastermix (Applied Biological Materials (abm) Inc.—G485) and diluted 5 times. qPCR was performed with BrightGreen 2X q-PCR MasterMix (abm—MasterMix-LR-XL) on a Roche LightCycler 96 system. Expression of targeted genes was normalized to 18S RNA.

[2] = system: H3K9 and H3K27 acetylation (class I HDACs); test: Western blotting of H3K9 and H3K27 acetylation in 4TO7 cells; assay type: cell-based, mouse; details: 10^–5 M, 6 h, western blot
Method: The hybrids were assessed to determine their HDACi and VDR agonist activity as well as their antiproliferative properties relative to DK-406. HDACi activity was assessed in vitro using an acetylated lysine substrate that releases a fluorescent reporter upon HDACi deacetylation and subsequent trypsin digestion. Increasing sidechain length of pyrimidine hybrids enhanced the potency of HDAC6 inhibition, with several compounds inhibiting HDAC6 with a sub-micromolar IC50, similar to that of DK-406 (Fig. 4a). […] Next, we analyzed the effects of compounds on levels of H3K9 and H3K27 acetylation in 4TO7 cells, which are controlled by class I HDACs[29],[30]. […] We also tested the capacity of analogues to induce tubulin acetylation, controlled by class II enzyme HDAC6[32], in 4TO7 cells. […]
Figure 4 (a) Results of in vitro assays for inhibition of purified HDAC2 and HDAC6 by DK-406 and heterocyclic hybrids as measured by inhibition of deacetylation of a fluorometric substrate (see Methods for details). […]
After treatments, 4T07 cells were solubilized in Lysis Buffer (20 mM Tris, pH 8, 150 mM NaCl, 1% Triton X-100, 3,5 mM SDS, 13 mM deoxycholic acid) and proteins extracted were separated on a 4–15% Tris/Glycine/SDS gel (BIO RAD). […] Signal was detected using Clarity ECL chemiluminescent substrates (Bio-Rad) and ChemiDoc Imaging System from the same company was used to quantify the intensity of bands. […]

VDR [3] = target: T1, VDR; test: Cyp24a1 induction assay for VDR agonism in 4T1 cells; assay type: cell-based; details: 24 h
Method: as §1, §2
Mouse 4T07 cells and 4T01 cells were cultured in DMEM (319–005-CL; WISENT Inc.) supplemented with 10% heat-inactivated FBS. […]

CCC(CC)(c1ccc(OCC(O)C(C)(C)C)c(C)c1)c1ccc(OCC(=O)NO)cn1 (stereo not drawn) [AM-155]
VDR agonist activity (Cyp24a1 induction) (VDR [1]): weakly potent VDR agonists

CCC(CC)(c1ccc(OCC(O)C(C)(C)C)c(C)c1)c1ccc(OCCCC(=O)NO)cn1 (stereo not drawn) [AM-171]
VDR agonist activity (Cyp24a1 induction) (VDR [1]): weakly potent VDR agonists

CCC(CC)(c1ccc(OCCCCCC(=O)NO)cc1)c1ccc(OCC(O)C(C)(C)C)c(C)n1 (stereo not drawn) [AM-193]
H3 acetylation at K9 and K27 [2]: enhanced H3 acetylation, although to a lesser degree than DK-406
VDR agonist activity (Cyp24a1 induction) (VDR [3]): full agonists; also recorded: potency of AM-193 was confirmed
VDR agonist activity (Cyp24a1 induction) (VDR [1]): partial agonists
potency in Cyp24a1 induction assay relative to DK-406 (VDR [1]): approximately tenfold

CCC(CC)(c1ccc(C(=O)NCCCCCC(=O)NO)cc1)c1ccc(OCC(O)C(C)(C)C)c(C)c1 (stereo not drawn) [DK-406]
H3 acetylation at K9 and K27 [2]: induced H3 acetylation at K9 and K27
VDR agonist activity (Cyp24a1 induction) (VDR [3]): full agonists
VDR agonist activity (Cyp24a1 induction) (VDR [1]): partial agonists
